Values after ≈ are worked out from the molar mass of the structure shown.
Columns and labels:
Anas platyrhynchos = conditions: for LC50: short-term, oral, feed, mortality
Colinus virginianus = conditions: acute, oral, mortality
Daphnia magna = conditions: chronic/long-term; duration: 21 days; reproduction
Lepomis macrochirus = conditions: acute; duration: 96 hours; mortality
Tagia sp. = conditions: for LC50: acute, mortality
Apis mellifera = conditions: acute, duration: 48 hours, mortality
Plant = conditions: not reported; no effects
Rattus norvegicus = conditions: for NOAEL: reproduction developmental
Aphidius rhopalosiphi = test: LR50; higher = less toxic; conditions: not reported; mortality
Orius insidiosus = test: LR50; higher = less toxic; conditions: not reported; mortality

Compound | LC50 (Anas platyrhynchos) | LD50 (Colinus virginianus) | NOEC (Daphnia magna) | LC50 (Lepomis macrochirus) | LC50 (Tagia sp.; duration: 14 days) | NOEC (Anas platyrhynchos; reproductive) | LD50 (Apis mellifera; dermal) | LD50 (Apis mellifera; oral, unspecified) | LC50 (Colinus virginianus; diet) | LEL (Plant) | LOAEL (Rattus norvegicus; acute, oral, gavage, neurology) | LD50 (Rattus norvegicus; acute, oral, mortality) | NOAEL (Rattus norvegicus; body weight) | NOAEL (Rattus norvegicus; oral, diet, mortality) | NOAEL (Rattus norvegicus; reproduction) | LC50 (Tagia sp.) | NOEC (Tagia sp.; chronic/long-term) | LR50 (Aphidius rhopalosiphi) | LR50 (Orius insidiosus)
CNC(=O)ON=C(C)SC [Methomyl] | 658 mg/kg-day | 24.2 mg/kg-day | 0.0016 mg/L | 0.62 µg/mL (≈ 3.82 µM) | 19 mg/kg | – | – | – | – | – | – | – | – | – | – | – | – | – | –
CSC(C)=NOC(=O)N(C)SN(C)C(=O)ON=C(C)SC [Thiodicarb] | > 5620 mg/kg | 2020 mg/kg-day | – | 1.4 µg/mL (≈ 3.95 µM) | – | 500 mg/kg | 3.1 µg/piece | 0.153 µg/piece | > 5620 mg/kg | 950 g/ha | < 5 mg/kg-day | 50 mg/kg-day | 1 mg/kg-day | 7 mg/kg-day | 84 mg/kg-day | 38.5 mg/kg | 2 mg/kg | 0.4 g/ha | 25.4 g/ha
